Paper PMC10530652 (BME Frontiers, 2021)

Assays:
[1] = Stability study of AZD1236 aqueous formulation (HPLC); assay type: physicochemical; settings: for Conc. / pH: aqueous formulation; for Conc. / Total imp. RRT(%): HPLC; for ∆%: relative to starting concentration of 70µg/5mL
Procedure: Summary table of stability as assessed by HPLC over 24 months stored under GMP conditions at RT. Data shown in blue represents inverted position vials. ∆% is relative to starting concentration of 70µg/5mL at time zero. Acceptance criteria: Retention time (RT) for AZD1236 is 3.97 min (Range 3.40-4.50 min). Total impurities – report as RRT (%) for each impurity. Biological functionality LOD = >21µg/5mL. pH 7.5 (7.0-8.0).

Crl:WI(Han) rats = experiment: Single intratracheal administration toxicity study of AZD1236; assay type: in vivo, rat; settings: 35 µg/animal (70 µg/mL)
Procedure: Assessment of toxicity of AZD1236 was based on clinical signs, body weight, food consumption, clinical and anatomic pathology evaluations. Complete necropsies were performed on all animals with a recording of macroscopic abnormalities for all tissues. Organ weights and microscopic examinations were conducted as indicated.

MMP-12 = settings: placebo-controlled, 55 COPD patients; cited from earlier work
Description: (§1) MMP inhibition has been identified as a target for drug interventions in inflammatory diseases. MMP inhibitors used in trials as cancer therapies were disappointing due to lack of efficacy and significant adverse effects. Studies have also been limited by a lack of quantifiable biomarkers to reflect on their in vivo and functional activity. […] It had previously been used in a phase 2A safety and tolerab ...

MMP-9 = target: T1, MMP-9 (Homo sapiens, UniProt P14780); settings: placebo-controlled, 55 COPD patients; cited from earlier work
T1 construct: recombinant MMPs (Enzo Life Sciences) (active domains of MMP-1, MMP-2, MMP-3, MMP-7, MMP-8, MMP-9, MMP-10, MMP-11, MMP-12, and MMP-13); purchased Enzo Life Sciences
Description: as §1

[2] = room temperature, 12m, 1st of 2 vials
[3] = room temperature, 12m, 2nd of 2 vials
[4] = room temperature, 18m, 1st of 2 vials
[5] = room temperature, 18m, 2nd of 2 vials
[6] = room temperature, 24m, 1st of 2 vials
[7] = room temperature, 24m, 2nd of 2 vials
[8] = room temperature, 1m, 1st of 2 vials
[9] = room temperature, 1m, 2nd of 2 vials
[10] = room temperature, 3m, 1st of 2 vials
[11] = room temperature, 3m, 2nd of 2 vials
[12] = room temperature, 6m, 1st of 2 vials
[13] = room temperature, 6m, 2nd of 2 vials
[14] = room temperature, 10.5m, 1st of 2 vials
[15] = room temperature, 10.5m, 2nd of 2 vials
[16] = room temperature, 24h, 1st of 2 vials
[17] = room temperature, 24h, 2nd of 2 vials
[18] = room temperature, 15d, 1st of 2 vials
[19] = room temperature, 15d, 2nd of 2 vials

T1 sequence (P14780 107-444 limits assumed): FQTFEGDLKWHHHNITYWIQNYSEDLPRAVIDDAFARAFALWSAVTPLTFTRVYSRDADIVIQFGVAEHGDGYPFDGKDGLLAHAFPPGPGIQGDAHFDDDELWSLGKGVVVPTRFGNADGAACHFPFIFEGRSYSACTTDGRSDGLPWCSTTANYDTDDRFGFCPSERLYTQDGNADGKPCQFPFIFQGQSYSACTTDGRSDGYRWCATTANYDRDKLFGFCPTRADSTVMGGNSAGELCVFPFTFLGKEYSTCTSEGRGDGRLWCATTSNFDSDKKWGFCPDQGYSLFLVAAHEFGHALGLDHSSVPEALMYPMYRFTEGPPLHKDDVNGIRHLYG

## AZD1236
[1]; 24 months, GMP conditions at RT, biological functionality LOD = >21µg/5mL
  biological functionality in aqueous formulation: remains biologically functional
[1]; after 24 months, stored at ambient temperature
  degradation in aqueous formulation of the drug product (HPLC traces): no degradation
[1]; room temperature, 1m, 1st of 2 vials (one inverted)
  Conc.: 77.0 µg per 5mL
[1]; room temperature, 1m, 2nd of 2 vials (one inverted)
  Conc.: 76.8 µg per 5mL
[1]; room temperature, 3m, 1st of 2 vials (one inverted)
  Conc.: 69.4 µg per 5mL
[1]; room temperature, 3m, 2nd of 2 vials (one inverted)
  Conc.: 69.4 µg per 5mL
[1]; room temperature, 6m, 1st of 2 vials (one inverted)
  Conc.: 70.8 µg per 5mL
[1]; room temperature, 6m, 2nd of 2 vials (one inverted)
  Conc.: 70.6 µg per 5mL
[1]; room temperature, 10.5m, 1st of 2 vials (one inverted)
  Conc.: 71.1 µg per 5mL
[1]; room temperature, 10.5m, 2nd of 2 vials (one inverted)
  Conc.: 70.7 µg per 5mL
[1]; [2]
  pH: 7.5
  ∆%: +0.00%
  Total imp. RRT(%): ND/NQ ND/NQ
[1]; [3]
  pH: 7.5
  ∆%: -1.15%
  Total imp. RRT(%): ND/NQ ND/NQ
[1]; room temperature, 12m, 1st of 2 vials (one inverted)
  Conc.: 70.0 µg per 5mL
[1]; room temperature, 12m, 2nd of 2 vials (one inverted)
  Conc.: 69.2 µg per 5mL
[1]; [4]
  pH: 7.5
  ∆%: +0.6%
  Total imp. RRT(%): ND/NQ ND/NQ
[1]; [5]
  pH: 7.5
  ∆%: +0.3%
  Total imp. RRT(%): ND/NQ ND/NQ
[1]; room temperature, 18m, 1st of 2 vials (one inverted)
  Conc.: 70.4 µg per 5mL
[1]; room temperature, 18m, 2nd of 2 vials (one inverted)
  Conc.: 70.2 µg per 5mL
[1]; [6]
  pH: 7.5
  ∆%: +4.2%
  Total imp. RRT(%): ND/NQ ND/NQ
[1]; [7]
  pH: 7.5
  ∆%: +3.6%
  Total imp. RRT(%): ND/NQ ND/NQ
[1]; room temperature, 24m, 1st of 2 vials (one inverted)
  Conc.: 72.96 µg per 5mL
[1]; room temperature, 24m, 2nd of 2 vials (one inverted)
  Conc.: 72.52 µg per 5mL
[1]; room temperature, 24h, 1st of 2 vials (one inverted)
  Conc.: 74.3 µg per 5mL
[1]; room temperature, 24h, 2nd of 2 vials (one inverted)
  Conc.: 74.5 µg per 5mL
[1]; room temperature, 15d, 1st of 2 vials (one inverted)
  Conc.: 70.2 µg per 5mL
[1]; room temperature, 15d, 2nd of 2 vials (one inverted)
  Conc.: 70.3 µg per 5mL
[1]; timepoint 0
  pH: 7.5
[1]; [8]
  ∆%: +10.0%
  Total imp. RRT(%): ND/NQ ND/NQ
[1]; [9]
  ∆%: +9.70%
  Total imp. RRT(%): ND/NQ ND/NQ
[1]; [10]
  ∆%: -0.90%
  Total imp. RRT(%): ND/NQ ND/NQ
[1]; [11]
  ∆%: -0.90%
  Total imp. RRT(%): ND/NQ ND/NQ
[1]; [12]
  ∆%: +1.00%
  Total imp. RRT(%): ND/NQ ND/NQ
[1]; [13]
  ∆%: +0.80%
  Total imp. RRT(%): ND/NQ ND/NQ
[1]; [14]
  ∆%: +1.50%
  Total imp. RRT(%): ND/NQ ND/NQ
[1]; [15]
  ∆%: +1.00%
  Total imp. RRT(%): ND/NQ ND/NQ
[1]; [16]
  ∆%: +6.0%
  Total imp. RRT(%): ND/NQ ND/NQ
[1]; [17]
  ∆%: +6.0%
  Total imp. RRT(%): ND/NQ ND/NQ
[1]; [18]
  ∆%: +0.14%
  Total imp. RRT(%): ND/NQ ND/NQ
[1]; [19]
  ∆%: +0.21%
  Total imp. RRT(%): ND/NQ ND/NQ
Crl:WI(Han) rats
  deaths, clinical signs, body weight, food consumption, clinical or anatomic pathology: no deaths, no adverse clinical signs and no effects of treatment
  tolerability, acute or delayed toxicity: well tolerated with no evidence of acute or delayed toxicity
MMP-12
  MMP-12 inhibition in induced sputum: failed to demonstrate
MMP-9
  MMP-9 inhibition in induced sputum: failed to demonstrate
